In patent publication US20220016197A1, “ZINGIBER ZERUMBET EXTRACT FOR COMBATING DANDRUFF” (PIERRE FABRE DERMO-COSMETIQUE, priority 2018, published 2022):

System: Malassezia furfur CBS1878
Assay: Anti Malassezia activity: enumeration of residual microorganisms after contact with test product
Type: cell-based
Conditions: for Enumeration of residual microorganisms after contact: product in mixture A inoculated with 1% inoculum of M. furfur at 10^7 CFU/ml; for log reduction value: versus initial number of microorganisms
Procedure: Indeed, M. furfur may proliferate anew if it is not completely or sufficiently removed. […] This component is generally measured by estimating the decay of microbial colonies over time.
Five formulas are tested in this test: • A compound used as reference: zinc pyrithione at 1.0% w/w in a mixture A comprising: sodium laureth sulfate 14.3%, alkyl dimethyl betaine 10.0%, decyl glucoside 3.8%, sorbitan monolaurate 2.0%, citric acid monohydrate 10% solution, qs pH=5; water qs 100; • A Zingiber zerumbet rhizome extract obtained by heptanic extraction from the dry and ground rhizome, at 2.0% w/w in mixture A; • A Zingiber zerumbet rhizome extract obtained by ethanolic extraction, at 2.0% w/w in mixture A; • A Zingiber zerumbet rhizome extract obtained by supercritical CO2 in a water-soluble excipient (butylene glycol) at 3.0% w/w in mixture A. This is a commercial material called Legance®, sold by the firm Sederma. The INCI name of this material is: Butylene glycol-Zingiber Zerumbet Extract.
An inoculation of 20 g of test product is carried out with 1% inoculum of Malassezia furfur titrating at 10^7 CFU/ml. After a determined contact time, 1 g of product is taken and a 1/10 dilution is carried out in the neutralizing diluent. Successive dilutions at 1/10 up to 1/1000 dilution are carried out in the diluent. 1 ml is filtered on a 0.45 μm membrane in ester and cellulose acetate in the presence of 50 ml of sterile demineralized water (SDW), then two rinses are carried out with 50 ml of SDW.
The chosen contact times are 1 h, 2 h, 5 h and 8 hours. The neutralizing diluent is TSB+10% polysorbate 80, the diluent is tryptone-salt. The rinsing liquid is sterile demineralized water.

zinc pyrithione [Compound 1]
activity on Malassezia furfur (in words): shows activity on Malassezia furfur from 1 hour of contact
reduction in the number of microorganisms (8 hours of contact): exceeds 3 log
Enumeration of residual microorganisms after contact (contact time 1 hour): 7.2 × 10^4 CFU/g
log reduction value (contact time 1 hour): 0.23
Enumeration of residual microorganisms after contact (contact time 2 hours): 4.8 × 10^4 CFU/g
log reduction value (contact time 2 hours): 0.40
Enumeration of residual microorganisms after contact (contact time 5 hours): 4.9 × 10^3 CFU/g
log reduction value (contact time 5 hours): 1.39
Enumeration of residual microorganisms after contact (contact time 8 hours): <1.0 × 10^2 CFU/g
log reduction value (contact time 8 hours): >3.08
